Experimental data published in patent US8536354B2, “Steroidal ligands and their use in gene switch modulation” (Intrexon Corporation, priority 2008, dated 2013).
Where two headings read alike, the source gives them in different places.

Key:
[1] = molecular target: T1, Amblyomma americanum EcR (AmaEcR-DEF) (Amblyomma americanum, UniProt O44338); experiment: Two-hybrid gene switch assay, AmaEcR-DEF in NIH3T3 cells; conditions: for Emax: NIH3T3, 48 h
T1 sequence (O44338 291-570): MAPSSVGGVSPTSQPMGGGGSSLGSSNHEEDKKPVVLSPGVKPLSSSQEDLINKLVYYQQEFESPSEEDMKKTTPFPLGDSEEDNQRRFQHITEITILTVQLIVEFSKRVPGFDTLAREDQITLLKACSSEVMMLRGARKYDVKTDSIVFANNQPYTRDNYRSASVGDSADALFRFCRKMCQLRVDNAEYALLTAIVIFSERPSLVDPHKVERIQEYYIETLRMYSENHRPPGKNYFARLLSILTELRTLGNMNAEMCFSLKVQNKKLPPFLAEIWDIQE
T1 sequence (P28702 299-449 partner): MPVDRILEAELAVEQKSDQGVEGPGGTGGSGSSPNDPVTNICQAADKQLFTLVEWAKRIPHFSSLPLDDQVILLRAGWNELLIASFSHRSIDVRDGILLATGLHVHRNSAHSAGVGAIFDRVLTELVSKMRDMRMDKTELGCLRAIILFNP

[2] = molecular target: T2, wild-type Choristoneura fumiferana EcR (CfEcR-DEF) (Choristoneura fumiferana, UniProt O77255); experiment: Two-hybrid gene switch assay, wild-type CfEcR-DEF (GAL4-EcR / VP16-RXR-USP chimera, luciferase) in NIH3T3 cells; conditions: for Emax: NIH3T3, 48 h
T2 sequence (O77255 219-541): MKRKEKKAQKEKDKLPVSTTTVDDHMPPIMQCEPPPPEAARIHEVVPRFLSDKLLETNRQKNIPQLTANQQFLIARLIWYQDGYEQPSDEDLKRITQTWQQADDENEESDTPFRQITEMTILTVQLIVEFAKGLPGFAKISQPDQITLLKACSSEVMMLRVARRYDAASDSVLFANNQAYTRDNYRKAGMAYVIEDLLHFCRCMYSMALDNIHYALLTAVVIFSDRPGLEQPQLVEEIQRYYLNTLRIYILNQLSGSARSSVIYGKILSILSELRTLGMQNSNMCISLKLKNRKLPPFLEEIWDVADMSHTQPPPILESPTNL
T2 sequence (P28702 299-449 partner): T1 sequence (P28702 299-449 partner)

[3] = read-out: rel max FI (20E), AMA
[4] = read-out: rel max FI (PoA), AMA

Compound | rel max FI (20E), AMA ([1]; AmaEcR, max fold induction at any concentration relative to 20E) | rel max FI (PoA), AMA ([1]; AmaEcR, max fold induction at any concentration relative to PoA) | EC50 ([1]; read-out: EC50 (μM), AMA, AmaEcR, NIH3T3 cells, luciferase, 48 h, ligand 0.01-33 μM) [µM] | EC50 ([2]; read-out: EC50 (μM), CF, wild-type CfEcR, NIH3T3 cells, luciferase, 48 h, ligand 0.01-33 μM) [µM] | rel max FI (20E), CF ([2]; wild-type CfEcR, max fold induction at any concentration relative to 20E) | rel max FI (PoA), CF ([2]; wild-type CfEcR, max fold induction at any concentration relative to PoA) | EC50 [1] [µM] | Emax [1, 3] [%] | Emax [1, 4] [%] | EC50 [2] [µM] | Emax ([2]; read-out: rel max FI (20E), CF) [%] | Emax ([2]; read-out: rel max FI (PoA), CF) [%]
COC1C[C@H]2C(=O)C=C3[C@H](CC[C@]4(C)[C@@H]([C@@](C)(O)C(CCC(C)(C)O)OC)CC[C@@]34OC)[C@@]2(C)CC1OC (stereo partly drawn) [20E-2,3,14,22-tetramethyl ether] | 0.34 | 0.26 | > 33 | > 33 | 0.46 | 0.00 |  |  |  |  |  | 
CO[C@H]1C[C@@]2(C)[C@@H](C[C@H]1O)C(=O)C=C1[C@@H]2CC[C@]2(C)[C@@H]([C@@](C)(O)[C@@H](CCC(C)(C)O)OC)CC[C@@]12O [20E-2,22-dimethyl ether] |  |  |  |  |  |  | ~8 | 94 | 72 | > 33 | 63 | 0
CO[C@H]1C[C@@]2(C)[C@@H](C[C@H]1O)C(=O)C=C1[C@@H]2CC[C@]2(C)[C@@H]([C@@](C)(O)[C@H](O)CCC(C)(C)O)CC[C@@]12O [20E-2-methyl ether] |  |  |  |  |  |  | ~10 | 65 | 50 | > 33 | 14 | 0
CO[C@@H]1C[C@H]2C(=O)C=C3[C@H](CC[C@]4(C)[C@@H]([C@@](C)(O)[C@@H](CCC(C)(C)O)OC)CC[C@@]34O)[C@@]2(C)C[C@@H]1O [20E-3,22-dimethyl ether] |  |  |  |  |  |  | ~2 | 104 | 80 | > 33 | 46 | 0
CO[C@@H]1C[C@H]2C(=O)C=C3[C@H](CC[C@]4(C)[C@@H]([C@@](C)(O)[C@H](O)CCC(C)(C)O)CC[C@@]34O)[C@@]2(C)C[C@@H]1O [20E-3-methyl ether] |  |  |  |  |  |  | ~3.3 | 91 | 70 | > 33 | 115 | 1
CO[C@H](CCC(C)(C)O)[C@](C)(O)C1CC[C@@]2(O)C3=CC(=O)C4C[C@@H](O)[C@@H](O)CC4(C)C3CCC12C (stereo partly drawn) [20E-22-methyl ether] |  |  |  |  |  |  | ~1 | 108 | 83 | > 33 | 7 | 0
